Laboratory results from ChEMBL document CHEMBL4706683 (J Med Chem, 2021).
Activity calls are given as the source filed them. The calls are words filed in the database; no cut-off is given here.

Assays:
HepG2 = assay: Cytotoxicity against human HepG2 cells assessed as reduction in cell viability incubated for 72 hrs by cell titer glo assay; type: cell-based; conditions: HepG2, 72 h
HEK-293T = assay: Cytotoxicity against human HEK293T cells assessed as reduction in cell viability incubated for 72 hrs by cell titer glo assay; type: cell-based
[1] = Selectivity index, ratio of IC50 for cytotoxicity against human HEK293T cells assessed to IC50 for antiplasmodial activity against synchronized ring stage Plasmodium falciparum 3D7 infected in human erythrocytes; type: toxicity, cell-based; conditions: read-out: Ratio IC50
[2] = Selectivity index, ratio of IC50 for cytotoxicity against human HepG2 cells assessed to IC50 for antiplasmodial activity against synchronized ring stage Plasmodium falciparum 3D7 infected in human erythrocytes; type: toxicity, cell-based; conditions: read-out: Ratio IC50
Plasmodium falciparum [3] = assay: Antiplasmodial activity against synchronized ring stage Plasmodium falciparum Dd2 infected in human erythrocytes assessed as reduction in parasite growth incubated for 72 hrs by Giemsa staining based light microscopic method; type: functional, organism-based; conditions: Dd2, Erythrocyte
Plasmodium falciparum [4] = assay: Antiplasmodial activity against synchronized ring stage Plasmodium falciparum 3D7 infected in human erythrocytes assessed as reduction in parasite growth incubated for 72 hrs by Giemsa staining based light microscopic method; type: functional, organism-based; conditions: 3D7, Erythrocyte
Plasmodium falciparum [5] = assay: Antiplasmodial activity against artemisinin-resistant ring stage Plasmodium falciparum 6320 infected in human erythrocytes assessed as reduction in parasite growth incubated for 72 hrs by Giemsa staining based light microscopic method; type: functional, organism-based; conditions: Plasmodium falciparum, 6320, Erythrocyte
[6] = Clearance in mouse liver microsomes incubated upto 45 mins in presence of NADPH by LC-MS/MS analysis; type: ADME, Microsome; conditions: read-out: CLH
Plasmodium falciparum [7] = assay: Antiplasmodial activity against Plasmodium falciparum GB4 infected in human erythrocytes assessed as reduction in parasite growth incubated for 72 hrs by Giemsa staining based light microscopic method; type: functional, organism-based; conditions: GB4, Erythrocyte
[8] = Half life in mouse liver microsomes incubated upto 45 mins in presence of NADPH by LC-MS/MS analysis; type: ADME, Microsome
Plasmodium falciparum [9] = assay: Antiplasmodial activity against Plasmodium falciparum C2A infected in human erythrocytes assessed as reduction in parasite growth incubated for 72 hrs by Giemsa staining based light microscopic method; type: functional, organism-based; conditions: Erythrocyte
Plasmodium falciparum [10] = assay: Antiplasmodial activity against artemisinin-resistant Plasmodium falciparum 6218 infected in human erythrocytes assessed as reduction in parasite growth incubated for 72 hrs by Giemsa staining based light microscopic method; type: functional, organism-based; conditions: Plasmodium falciparum, 6218, Erythrocyte
Plasmodium falciparum [11] = assay: Antiplasmodial activity against Plasmodium falciparum CP286 infected in human erythrocytes assessed as reduction in parasite growth incubated for 72 hrs by Giemsa staining based light microscopic method; type: functional, organism-based; conditions: CP286, Erythrocyte
[12] = Toxicity in Balb/c mouse infected with blood stage Plasmodium yoelii assessed as animal death at 60 mg/kg, ip QD for 5 consecutive days and measured on day 30; type: organism-based; conditions: in vivo, 120 h, time 5 day
Plasmodium yoelii = assay: Antiplasmodial activity against blood stage Plasmodium yoelii infected in Balb/c mouse assessed as reduction in parasitemia at 60 mg/kg, ip QD for 5 consecutive days and measured on day 30 by microscopic analysis; type: functional, organism-based; conditions: time 5.0 day

Row | SMILES | IC50 (HepG2) [µM] | IC50 (HEK-293T) [µM] | selectivity ratio [1] | selectivity ratio [2] | IC50 (Plasmodium falciparum [3]) [µM] | IC50 (Plasmodium falciparum [4]) [µM] | IC50 (Plasmodium falciparum [5]) [µM] | CLint scaled [6] [L/h/kg] | IC50 (Plasmodium falciparum [7]) [µM] | half-life [8] [h] | IC50 (Plasmodium falciparum [9]) [µM] | IC50 (Plasmodium falciparum [10]) [µM] | IC50 (Plasmodium falciparum [11]) [µM] | Activity [12] | Activity (Plasmodium yoelii)
1 | O=C(NO)c1cnc(N2CCC3(CCN(Cc4cccnc4)C3)CC2)nc1 | 1.83 | 2.13 | 104 | 90 | 0.0179 | 0.0204 |  |  |  |  |  |  |  |  | 
2 | O=C(NO)c1cnc(N2CCC3(CCN(Cc4cccc5ccccc45)C3)CC2)nc1 | 0.091 | 0.154 | 35 | 21 | 0.0067 | 0.0044 |  |  |  |  |  |  |  |  | 
3 | O=C(NO)c1cnc(N2CCC3(CCN(Cc4cnc5ccccc5c4)C3)CC2)nc1 | 0.564 | 0.145 | 26 | 102 | 0.0027 | 0.00554 |  |  |  |  |  |  |  |  | 
4 | Cl.Cn1cc(CN2CCC3(CCN(c4ncc(C(=O)NO)cn4)CC3)C2)c2cnccc21 | 0.982 | 1.46 | 370 | 248 | 0.0049 | 0.004 | 0.0084 | 2.61 | 0.0095 | 2.09 | 0.0117 | 0.0087 | 0.0111 | Toxic | 
5 | Cn1nc(CN2CCC3(CCN(c4ncc(C(=O)NO)cn4)CC3)C2)c2ccccc21 | 0.139 | 0.395 | 82 | 29 | 0.0049 | 0.0048 |  |  |  |  |  |  |  |  | 
6 | O=C(NO)c1cnc(N2CCC3(CCN(Cc4csc5ccccc45)C3)CC2)nc1 | 0.079 | 0.109 | 25 | 18 | 0.0036 | 0.0043 |  |  |  |  |  |  |  |  | 
7 | C[C@H]1[C@@H](O)O[C@@H]2O[C@@]3(C)CC[C@H]4[C@H](C)CC[C@@H]1[C@@]24OO3 [ARTENIMOL] |  |  |  |  | 0.00268 | 0.0027 | 0.0059 |  | 0.0032 |  | 0.0037 | 0.0052 | 0.0056 |  | 
8 | O=C(NO)c1cnc(N2CCC3(CCN(Cc4ccc5ccc6cccc7ccc4c5c67)C3)CC2)nc1 | 1.68 | 1.97 | 74 | 64 | 0.0195 | 0.0264 |  |  |  |  |  |  |  |  | 
9 | O=C(NO)c1cnc(N2CCC3(CCN(CC4CCCCC4)C3)CC2)nc1 | 1.63 | 1.25 | 122 | 160 | 0.0147 | 0.0102 |  |  |  |  |  |  |  |  | 
10 | O=C(NO)c1cnc(N2CCC3(CCN(Cc4ccnc5ccccc45)C3)CC2)nc1 | 0.482 | 0.351 | 24 | 33 | 0.0147 | 0.0146 |  |  |  |  |  |  |  |  | 
11 | O=C(NO)c1cnc(N2CCC3(CCN(CC4CCCC4)C3)CC2)nc1 | 0.63 | 1.23 | 90 | 46 | 0.0127 | 0.0136 |  |  |  |  |  |  |  |  | 
12 | O=C(NO)c1cnc(N2CCC3(CCN(Cc4cccc5cccnc45)C3)CC2)nc1 | 0.221 | 0.351 | 44 | 28 | 0.0034 | 0.008 |  |  |  |  |  |  |  |  | 
13 | O=C(NO)c1cnc(N2CCC3(CCN(Cc4ccoc4)C3)CC2)nc1 | 1.05 | 1.63 | 46 | 30 | 0.0263 | 0.0353 |  |  |  |  |  |  |  |  | 
14 | O=C(NO)c1cnc(N2CCC3(CCN(Cc4ccc5ccccc5c4)C3)CC2)nc1 | 0.228 | 0.484 | 118 | 56 | 0.00316 | 0.0041 |  |  |  |  |  |  |  |  | 
15 | O=C(NO)c1cnc(N2CCC3(CCN(Cc4coc5ccccc45)C3)CC2)nc1 | 0.886 | 0.576 | 42 | 65 | 0.0109 | 0.0136 |  |  |  |  |  |  |  |  | 
16 | O=C(NO)c1cnc(N2CCC3(CCN(Cc4ccc5ccccc5n4)C3)CC2)nc1 | 0.32 | 0.393 | 57 | 47 | 0.00298 | 0.0069 |  |  |  |  |  |  |  |  | 
17 | O=C(NO)c1cnc(N2CCC3(CCN(Cc4cncc5ccccc45)C3)CC2)nc1 | 0.102 | 0.423 | 37 | 9 | 0.0079 | 0.0115 |  |  |  |  |  |  |  |  | 
18 | O=C(NO)c1cnc(N2CCC3(CCN(Cc4ccncc4)C3)CC2)nc1 | 3.25 | 3.47 | 206 | 193 | 0.0228 | 0.0169 |  |  |  |  |  |  |  |  | 
19 | O=C(NO)c1cnc(N2CCC3(CCN(Cc4ccsc4)C3)CC2)nc1 | 1.06 | 0.831 | 36 | 46 | 0.0118 | 0.0231 |  |  |  |  |  |  |  |  | 
20 | O=C(NO)c1cnc(N2CCC3(CCN(Cc4ccccc4)C3)CC2)nc1 | 0.217 | 0.375 | 55 | 32 | 0.0076 | 0.0068 |  |  |  |  |  |  |  |  | 
21 | Cl.Cn1cc(CN2CCC3(CCN(c4ncc(C(=O)NO)cn4)CC3)C2)c2ccccc21 | 0.072 | 0.06 | 22 | 26 | 0.0025 | 0.0028 | 0.0041 | 25.4 | 0.0037 | 0.214 | 0.00487 | 0.0035 | 0.0039 | Toxic | 
22 | O=C(NO)c1cnc(N2CCC3(CCN(Cc4ccc(-c5ccccc5)cc4)C3)CC2)nc1 | 0.641 | 0.732 | 21 | 19 | 0.0461 | 0.0345 |  |  |  |  |  |  |  |  | 
23 | O=C(NO)c1cnc(N2CCC3(CCN(Cc4cccc5ncccc45)C3)CC2)nc1 | 0.74 | 0.559 | 48 | 64 | 0.0092 | 0.0116 |  |  |  |  |  |  |  |  | 
24 | Cl.Cn1cc(CN2CCC3(CCN(c4ncc(C(=O)NO)cn4)CC3)C2)c2ncccc21 | 0.855 | 0.755 | 235 | 266 | 0.0043 | 0.00322 | 0.0038 | 2.43 | 0.0037 | 2.25 | 0.005 | 0.00404 | 0.0055 | Non-Toxic | inactive
25 | O=C(NO)c1cnc(N2CCC3(CCN(Cc4ccccn4)C3)CC2)nc1 | 1.3 | 1.72 | 106 | 80 | 0.0233 | 0.0162 |  |  |  |  |  |  |  |  | 
26 | Cl.Cn1cc(CN2CCC3(CCN(c4ncc(C(=O)NO)cn4)CC3)C2)c2cccnc21 | 0.281 | 0.399 | 132 | 93 | 0.0034 | 0.003 | 0.0052 | 1.98 | 0.0064 | 2.75 | 0.00618 | 0.005 | 0.0068 | Non-Toxic | inactive
27 | O=C(NO)c1cnc(N2CCC3(CCN(Cc4cccc5ccncc45)C3)CC2)nc1 | 0.415 | 0.207 | 26 | 51 | 0.0069 | 0.0081 |  |  |  |  |  |  |  |  | 
28 | O=C(NO)c1cnc(N2CCC3(CCN(Cc4c5ccccc5cc5ccccc45)C3)CC2)nc1 | 0.165 | 0.39 | 18 | 7 | 0.0165 | 0.0223 |  |  |  |  |  |  |  |  | 
29 | O=C(NO)c1cnc(N2CCC3(CCN(Cc4cc5ccccc5c5ccccc45)C3)CC2)nc1 | 0.204 | 0.482 | 48 | 20 | 0.0085 | 0.0101 |  |  |  |  |  |  |  |  | 
30 | O=C(NO)c1cnc(N2CCC3(CCN(Cc4cnc5ccccn45)C3)CC2)nc1 | 1.96 | 3.53 | 245 | 136 | 0.0185 | 0.0144 |  |  |  |  |  |  |  |  | 
